Consider one compound from patent US20220080016A1, “Antioxidant, Antibacterial Or Anti-Inflammatory Pharmaceutical Composition Containing Scutellaria Baicalensis Extract And Magnolia Officinalis Extract As Active Ingredients” (Genogen Co.,Ltd., priority 2020, published 2022).

≈ marks a conversion by molar mass, not a printed value.

A short description of the experiment: DPPH radical scavenging assay. It counts as biochemical. The conditions noted are these: DPPH radical scavenging activity in 30 minutes. As to the method:
FIGS. 4A through 4D show lipid peroxidation and DPPH (1,1-diphenyl-2-picrylhydrazyl) analysis result which were obtained by measuring the antioxidant activity of Comparative Example 1 (SBR), Comparative Example 2 (MOB) and Present Example 1 (GenoTX-407). […] As shown in the upper left graph of FIG. 4, after exposure to FeCl3 (50 μM), TBARS (thiobarbituric acid reactive substances) level increased (74%).

`O=C1O[C@H]([C@@H](O)CO)C(O)=C1O` [ascorbic acid]: the “EC50, DPPH” value is 14.38 µg/mL (≈ 81.6 µM).
